Values of other authors, collected in patent US20070178049A1, “Systems and methods for the delivery of corticosteroids having an enhanced pharmacokinetic profile” (Verus Pharmaceuticals, Inc., priority 2005, published 2007).

solubility in alcohols (alcohols): readily soluble
solubility in water (water): virtually insoluble
SMILES: CCCC1O[C@@H]2C[C@H]3[C@@H]4CCC5=CC(=O)C=C[C@]5(C)[C@H]4[C@@H](O)C[C@]3(C)[C@]2(C(=O)CO)O1 (stereo partly drawn) [budesonide, (R, S)-11β,16α,17,21-tetrahydroxypregna-1,4-diene-3,20-dione cyclic 16,17-acetal with butyraldehyde]
